# From the supplement of paper PMC10307832
# Compound: CCn1c(-c2nonc2N)nc2c(C#CC(C)(C)O)ncc(OC[C@H]3CCCNC3)c21 + C[C@]1(O)C[C@@H](c2nc(-c3ccc4ccc(-c5ccccc5)nc4c3)c3c(N)nccn32)C1 [Linsitinib] (partner 1 µM)
# Assay: relative viability (nuclei count vs DMSO), 5 days (fraction); higher = more cells survive
# Conditions: first compound 1 µM
# How it was run: (§1)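 After 5 days of treatment, lung cancer cells in 1536-well plates were fixed and stained in a single step (final 0.05% Triton X-100, 1% formaldehyde, 1 ug/ml Hoechst) and their nuclei counted on 4× images. Treatment had been applied by pin tool the day after seeding as one drug alone or as a fixed anchor-drug dose with five library-drug doses (not always all listed) in √10 steps. Relative viability is the nuclei count of treated wells divided by that of vehicle wells, and values are medians of duplicate plates.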
row,Cell Line,relative viability
1,H3255,0.843
2,COR-L23,0.829
3,COR-L 105,0.81
4,IA-LM,0.464
5,LOU-NH91,0.886
6,NCI-H2405,1.02
7,HOP-62,0.878
8,HCC-44,0.71
9,A549,0.647
10,LU99A,0.548
11,BEN,0.967
12,HARA,1.11
13,HCC-78,0.546
14,NCI-H1299,1.02
15,NCI-H1563,0.96
16,ABC-1,0.526

# Compound: CCn1c(-c2nonc2N)nc2c(C#CC(C)(C)O)ncc(OC[C@H]3CCCNC3)c21 + CCNC(=O)c1noc(-c2cc(C(C)C)c(O)cc2O)c1-c1ccc(CN2CCOCC2)cc1 [Luminespib] (partner 0.01 µM)
# Assay: as above
# Conditions: first compound 0.01 µM
# How it was run: as §1
row,Cell Line,relative viability
1,NCI-H522,0.929
2,NCI-H1623,0.443
3,NCI-H727,0.324
4,NCI-H1650,0.187
5,NCI-H1993,0.84
6,SW 1573,0.215
7,NCI-H838,0.309
8,LCLC-103H,0.936
9,NCI-H520,0.188
10,NCI-H2126,0.85
11,EMC-BAC-2,1.18
12,NCI-H2085,0.417
13,NCI-H1666,0.948
14,NCI-H596,1.06
15,LK-2,0.168
16,NCI-H2087,0.128

row,Cell Line,relative viability
1,NCI-H2342,0.91
2,SK-MES-1,0.907
3,H3255,0.84
4,COR-L23,0.669
5,COR-L 105,0.621
6,LOU-NH91,0.34
7,ChaGo-K-1,0.564
8,NCI-H2170,0.779
9,NCI-H2405,0.542
10,HOP-62,0.903
11,SW 900,0.189
12,LU99A,0.254
13,BEN,0.235
14,HARA,0.942
15,NCI-H1563,0.466

# Same assay, conditions: first compound 0.03162 µM
row,Cell Line,relative viability
1,NCI-H522,1.19
2,NCI-H1623,0.639
3,NCI-H727,0.621
4,NCI-H1650,0.202
5,NCI-H1993,0.728
6,SW 1573,0.563
7,NCI-H838,0.308
8,LCLC-103H,0.912
9,NCI-H520,0.222
10,NCI-H2126,0.914
11,EMC-BAC-2,1.17
12,NCI-H2085,0.382
13,NCI-H1666,0.933
14,NCI-H596,1.13
15,LK-2,0.177
16,NCI-H2087,0.154

row,Cell Line,relative viability
1,NCI-H2342,0.678
2,SK-MES-1,0.904
3,H3255,0.754
4,COR-L23,0.642
5,COR-L 105,0.868
6,LOU-NH91,0.365
7,ChaGo-K-1,0.588
8,NCI-H2170,0.785
9,NCI-H2405,0.793
10,HOP-62,0.878
11,SW 900,0.185
12,LU99A,0.21
13,BEN,0.337
14,HARA,0.222
15,NCI-H1563,0.641
16,ABC-1,0.533

# Same assay, conditions: first compound 0.1 µM
row,Cell Line,relative viability
1,NCI-H522,1.14
2,NCI-H1623,0.486
3,NCI-H727,0.311
4,NCI-H1650,0.182
5,NCI-H1993,0.739
6,SW 1573,0.178
7,NCI-H838,0.296
8,LCLC-103H,0.94
9,NCI-H520,0.188
10,NCI-H2126,0.892
11,EMC-BAC-2,1.23
12,NCI-H2085,0.492
13,NCI-H1666,1.05
14,NCI-H596,1.17
15,NCI-H2087,0.165
16,NCI-H2342,0.67

row,Cell Line,relative viability
1,SK-MES-1,0.674
2,H3255,0.838
3,COR-L23,0.696
4,COR-L 105,0.709
5,LOU-NH91,0.374
6,ChaGo-K-1,0.655
7,NCI-H2170,0.572
8,NCI-H2405,0.663
9,HOP-62,0.913
10,HCC-44,0.994
11,SW 900,0.18
12,LU99A,0.239
13,BEN,0.332
14,HARA,0.666
15,NCI-H1563,0.5
16,ABC-1,1.04

# Same assay, conditions: first compound 0.3162 µM
row,Cell Line,relative viability
1,NCI-H522,0.604
2,NCI-H1623,0.425
3,NCI-H727,0.313
4,NCI-H1650,0.199
5,NCI-H1993,0.645
6,SW 1573,0.584
7,NCI-H838,0.227
8,LCLC-103H,0.735
9,NCI-H520,0.238
10,NCI-H2126,0.859
11,EMC-BAC-2,1.18
12,NCI-H2085,0.42
13,NCI-H1666,0.959
14,NCI-H596,0.935
15,NCI-H2087,0.152
16,NCI-H2342,0.625

row,Cell Line,relative viability
1,SK-MES-1,0.712
2,H3255,0.771
3,COR-L23,0.57
4,COR-L 105,0.775
5,LOU-NH91,0.319
6,ChaGo-K-1,0.535
7,NCI-H2170,0.731
8,NCI-H2405,0.647
9,HOP-62,0.876
10,HCC-44,0.906
11,SW 900,0.16
12,LU99A,0.307
13,BEN,0.571
14,HARA,0.585
15,NCI-H1563,0.463
16,ABC-1,0.403

# Same assay, conditions: first compound 1 µM
row,Cell Line,relative viability
1,NCI-H522,1.2
2,NCI-H1623,0.472
3,NCI-H727,0.389
4,NCI-H1650,0.206
5,NCI-H1993,0.686
6,SW 1573,0.342
7,NCI-H838,0.304
8,LCLC-103H,0.863
9,NCI-H520,0.182
10,NCI-H2126,0.961
11,EMC-BAC-2,1.21
12,NCI-H2085,0.463
13,NCI-H1666,1.04
14,NCI-H596,1.13
15,LK-2,0.14
16,NCI-H2087,0.163
17,NCI-H2342,0.757

row,Cell Line,relative viability
1,SK-MES-1,0.743
2,H3255,0.958
3,COR-L23,0.568
4,COR-L 105,0.923
5,LOU-NH91,0.316
6,ChaGo-K-1,0.505
7,NCI-H2170,0.744
8,NCI-H2405,0.698
9,HOP-62,0.967
10,HCC-44,1.21
11,SW 900,0.162
12,LU99A,0.248
13,BEN,0.452
14,HARA,0.603
15,NCI-H1563,0.505
16,ABC-1,0.682

# Compound: CCOC1=CC=CC=C1N=NC2=C(NN(C2=O)C3=NC(=CS3)C4=CC=CC=C4)C [BAM7] + Cc1nc(NC(=O)N2CCC[C@H]2C(N)=O)sc1-c1ccnc(C(C)(C)C(F)(F)F)c1 [Alpelisib] (partner 2 µM)
# Assay: as above
# Conditions: first compound 0.5 µM
# How it was run: as §1
row,Cell Line,relative viability
1,NCI-H727,0.599
2,EBC-1,1.05
3,NCI-H1703,0.316
4,NCI-H1993,0.766
5,SW 1573,0.777
6,NCI-H838,1.06
7,LCLC-103H,0.998
8,NCI-H520,1.03
9,NCI-H2126,0.703
10,EMC-BAC-2,0.801
11,NCI-H2085,0.957
12,Calu-6,0.986
13,HCC-366,0.403
14,NCI-H1666,1.04
15,NCI-H596,0.461
16,LK-2,1.14
17,NCI-H2087,1.17
18,SK-MES-1,1.1

row,Cell Line,relative viability
1,H3255,0.691
2,COR-L23,0.804
3,COR-L 105,1.01
4,IA-LM,0.67
5,LOU-NH91,0.753
6,NCI-H2170,0.631
7,NCI-H2405,0.862
8,HOP-62,0.921
9,HCC-44,0.829
10,A549,0.872
11,LU99A,0.588
12,BEN,1.11
13,HARA,0.879
14,HCC-78,0.395
15,NCI-H1299,1.06
16,NCI-H1563,0.991
17,ABC-1,1.37

# Same assay, conditions: first compound 5 µM
row,Cell Line,relative viability
1,NCI-H727,0.576
2,EBC-1,0.805
3,NCI-H1703,0.322
4,NCI-H1993,0.689
5,SW 1573,0.833
6,NCI-H838,1.05
7,LCLC-103H,0.837
8,NCI-H520,1.01
9,NCI-H2126,0.677
10,EMC-BAC-2,0.778
11,NCI-H2085,1.07
12,Calu-6,0.931
13,HCC-366,0.318
14,NCI-H1666,0.892
15,NCI-H596,0.463
16,LK-2,1.78
17,NCI-H2087,1.15
18,SK-MES-1,0.9

row,Cell Line,relative viability
1,H3255,0.673
2,COR-L23,0.714
3,COR-L 105,1.06
4,IA-LM,0.648
5,LOU-NH91,0.728
6,NCI-H2170,0.603
7,NCI-H2405,0.773
8,HOP-62,0.826
9,HCC-44,0.708
10,A549,0.722
11,LU99A,0.489
12,BEN,0.948
13,HARA,0.816
14,HCC-78,0.21
15,NCI-H1299,1.1
16,NCI-H1563,0.864
17,ABC-1,0.968

# Same assay, conditions: first compound 15.81 µM
row,Cell Line,relative viability
1,NCI-H727,0.57
2,EBC-1,0.814
3,NCI-H1703,0.291
4,NCI-H1993,0.585
5,SW 1573,0.85
6,NCI-H838,0.989
7,LCLC-103H,1.08
8,NCI-H520,0.947
9,NCI-H2126,0.606
10,EMC-BAC-2,0.713
11,NCI-H2085,0.834
12,Calu-6,0.932
13,HCC-366,0.324
14,NCI-H1666,0.9
15,NCI-H596,0.425
16,LK-2,1.16
17,NCI-H2087,0.917
18,SK-MES-1,0.985

row,Cell Line,relative viability
1,H3255,0.649
2,COR-L23,0.685
3,COR-L 105,0.967
4,IA-LM,0.659
5,LOU-NH91,0.629
6,NCI-H2170,0.537
7,NCI-H2405,0.684
8,HOP-62,0.901
9,HCC-44,0.702
10,A549,0.846
11,LU99A,0.532
12,BEN,0.903
13,HARA,0.594
14,HCC-78,0.294
15,NCI-H1299,1.03
16,NCI-H1563,0.864
17,ABC-1,0.851

# Same assay, conditions: first compound 50 µM
row,Cell Line,relative viability
1,NCI-H727,0.663
2,EBC-1,0.953
3,NCI-H1703,0.36
4,NCI-H1993,0.629
5,SW 1573,0.75
6,NCI-H838,1
7,LCLC-103H,0.984
8,NCI-H520,0.865
9,NCI-H2126,0.704
10,EMC-BAC-2,0.772
11,NCI-H2085,0.981
12,Calu-6,1.11
13,HCC-366,0.322
14,NCI-H1666,0.984
15,NCI-H596,0.492
16,LK-2,0.874
17,NCI-H2087,0.985
18,SK-MES-1,1.01

row,Cell Line,relative viability
1,H3255,0.734
2,COR-L23,0.752
3,COR-L 105,0.981
4,IA-LM,0.994
5,LOU-NH91,0.684
6,NCI-H2170,0.672
7,NCI-H2405,0.839
8,HOP-62,0.797
9,HCC-44,0.735
10,A549,0.845
11,LU99A,0.597
12,BEN,1.08
13,HARA,0.847
14,HCC-78,0.365
15,NCI-H1299,0.992
16,NCI-H1563,0.929
17,ABC-1,0.914
